In paper PMC8440923, “Peptides Targeting the Interaction Between Erb1 and Ytm1 Ribosome Assembly Factors” (Frontiers in Molecular Biosciences, 2021):
Residues, ends and D or L forms follow the SMILES beside them. No end group written: not given here. *: point of attachment. Biotin = O=C1N[C@H]2[C@H](CS[C@H]2CCCCC(=O)*)N1

Experiments:
Ytm1 [1] = target: T1, Ytm1 (Thermochaetoides thermophila, UniProt G0SFB5); assay: Biolayer interferometry peptide affinity assay, immobilized biotinylated peptide, Ytm1 analyte; design: species or system Chaetomium thermophilum; conditions: BLI, streptavidin biosensor, 50 µg/ml biotinylated peptide immobilized, read-out: ka (1/Ms) of Ytm1 binding to immobilized biotinylated peptide
T1 construct: 6xHis; made in house; host or cells: Sf9 insect cells (baculovirus)
T1 sequence (G0SFB5 1-495): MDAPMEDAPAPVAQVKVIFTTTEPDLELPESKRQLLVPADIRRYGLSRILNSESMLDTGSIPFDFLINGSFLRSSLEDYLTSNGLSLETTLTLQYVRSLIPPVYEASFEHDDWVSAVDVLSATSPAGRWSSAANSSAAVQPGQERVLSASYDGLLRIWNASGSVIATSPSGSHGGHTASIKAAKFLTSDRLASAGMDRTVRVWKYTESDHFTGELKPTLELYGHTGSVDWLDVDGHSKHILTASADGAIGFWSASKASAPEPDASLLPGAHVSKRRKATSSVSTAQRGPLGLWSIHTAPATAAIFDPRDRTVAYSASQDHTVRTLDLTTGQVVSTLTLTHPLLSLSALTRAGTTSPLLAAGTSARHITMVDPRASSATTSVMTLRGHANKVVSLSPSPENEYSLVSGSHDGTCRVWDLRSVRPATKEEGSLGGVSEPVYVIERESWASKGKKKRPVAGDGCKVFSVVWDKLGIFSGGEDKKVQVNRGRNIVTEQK
Protocol: (§1) Peptides were commercially obtained from Synpeptide Co., Ltd., Shanghai, China. All experiments have been made in triplicates and include control curves for bait and analyte only.
BLI was used to determine the affinity between Ytm1 and biotinylated peptides using streptavidin biosensors (FortéBio). The biosensors were hydrated 10 min in the same buffer used on the interference assay, with 0.05% (w/v) bovine serum albumin (BSA). 50 µg/ml of biotinylated peptide was immobilized at the streptavidin biosensor. Increasing concentrations of Ytm1 were used to calculate the KD values using the Blitz Pro 1.2 software using the implemented equations for association and dissociation:
Association phase: y=Rmax 1/1+kd/ka∗[Analyte](1−e^−(ka∗[Analyte]+kd)x) .
Dissociation phase: y=y0 e^−kd(x−x0). y0=Rmax 1/1+kd/ka∗[Analyte](1−e^−(ka∗[Analyte]+kd)x0).
According to P1, P3, and P6 results, a new N-terminal biotynilated peptide synthesis was ordered using the same sequences (Biot-P1, Biot-P3, and Biot-P6, Table 1). Biotynilated peptides Biot-P1 and Biot-P3 were immobilized to the streptavidin biosensor and Ytm1 binding was measured. Similarly, Biot-P6 was immobilized to the streptavidin biosensor followed by Erb1 binding. […] Inconsistent results were obtained in DSF using Erb1 and a proper Tm could not be obtained so thermal shift could not be evaluated for P6.

Erb1/Ytm1 complex [2] = target: T2, Erb1/Ytm1 complex (Thermochaetoides thermophila, UniProt G0SCK6); assay: Biolayer interferometry peptide interference assay, immobilized Ytm1, Erb1 analyte preincubated with P4-P6; type: binding, Chaetomium thermophilum; conditions: BLI, 20 µM Erb1 preincubated with equimolar peptide, reference without peptide 1.201e-3
T2 construct: 6xHis; made in house; host or cells: Erb1: Escherichia coli (DE3) BL21 CodonPlus (RIPL); Ytm1: Sf9 insect cells (baculovirus)

Erb1 = assay: Biolayer interferometry peptide affinity assay, immobilized biotinylated peptide, Erb1 analyte; type: binding, Chaetomium thermophilum; conditions: BLI, streptavidin biosensor, Erb1 as analyte
Protocol: as §1
BLI was used to determine the affinity between Ytm1 and biotinylated peptides using streptavidin biosensors (FortéBio). The biosensors were hydrated 10 min in the same buffer used on the interference assay, with 0.05% (w/v) bovine serum albumin (BSA). 50 µg/ml of biotinylated peptide was immobilized at the streptavidin biosensor. Increasing concentrations of Ytm1 were used to calculate the KD values using the Blitz Pro 1.2 software using the implemented equations for association and dissociation: […]
According to P1, P3, and P6 results, a new N-terminal biotynilated peptide synthesis was ordered using the same sequences (Biot-P1, Biot-P3, and Biot-P6, Table 1). Biotynilated peptides Biot-P1 and Biot-P3 were immobilized to the streptavidin biosensor and Ytm1 binding was measured. Similarly, Biot-P6 was immobilized to the streptavidin biosensor followed by Erb1 binding. […] To further confirm the interaction a differential scanning fluorimetry assay was performed. […] Inconsistent results were obtained in DSF using Erb1 and a proper Tm could not be obtained so thermal shift could not be evaluated for P6.

Ytm1 [3] = target: T1, Ytm1; assay: Differential scanning fluorimetry (thermofluor) of Ytm1 with peptide; type: binding, Chaetomium thermophilum; conditions: DSF, SYPRO Orange 1:1,000; 5 µM Ytm1, 1 mM peptide; 50 mM HEPES pH 7.5, 150 mM NaCl; 20-85°C at 1°C/min; triplicates
Protocol: Thermofluor assays ([Pantoliano et al., 2001]) were performed on a 7,500 Fast Real-Time PCR System (Applied Biosystems) measuring the gradual fluorescence generated by a 1:1,000 dilution of SYPRO Orange Protein Stain Gel (Supelco, Merck-Sigma) along with 1°C/min temperature increase from 20°C until 85°C.
The samples were mixed containing the protein Ytm1 at 5 µM in 50 mM HEPES pH 7.5, 150 mM NaCl and peptides P1-P3 at 1 mM concentration. Previously, lyophilized P2 and P3 were resuspended in the same Ytm1 buffer and P1 was solubilized in 10 mM Tris (hydroxymethyl)-methylamine (Tris-HCl), pH 8.8 for P1. Data of triplicated experiments were analyzed using GraphPad Prism 5.01 software.

Erb1/Ytm1 complex [4] = target: T3, Erb1/Ytm1 complex (Thermochaetoides thermophila, UniProt G0SFB5); assay: Biolayer interferometry peptide interference assay, immobilized Erb1, Ytm1 analyte preincubated with P1-P3; type: binding, Chaetomium thermophilum; conditions: BLI, 5 µM Ytm1 preincubated with equimolar peptide, reference without peptide 1.724e-3
T3 construct: 6xHis; made in house; host or cells: Ytm1: Sf9 insect cells (baculovirus); Erb1: Escherichia coli (DE3) BL21 CodonPlus (RIPL)
T3 sequence (G0SFB5 1-495): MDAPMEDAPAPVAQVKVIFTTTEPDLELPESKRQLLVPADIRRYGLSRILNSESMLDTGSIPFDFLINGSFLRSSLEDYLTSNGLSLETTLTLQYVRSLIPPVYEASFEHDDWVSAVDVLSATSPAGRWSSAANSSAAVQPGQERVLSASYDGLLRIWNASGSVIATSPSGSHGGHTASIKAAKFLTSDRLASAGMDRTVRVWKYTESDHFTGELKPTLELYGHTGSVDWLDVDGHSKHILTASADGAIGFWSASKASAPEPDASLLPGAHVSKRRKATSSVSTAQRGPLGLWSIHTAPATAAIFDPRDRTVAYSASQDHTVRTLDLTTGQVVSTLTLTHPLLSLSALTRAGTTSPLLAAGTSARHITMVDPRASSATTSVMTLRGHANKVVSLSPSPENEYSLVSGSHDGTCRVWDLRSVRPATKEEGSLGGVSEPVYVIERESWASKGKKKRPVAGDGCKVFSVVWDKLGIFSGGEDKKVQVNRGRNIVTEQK
Protocol: as §1
Potential interference peptide samples were evaluated by their ability to interfere the kinetics and affinity of the complex between Erb1 and Ytm1 as measured by Biolayer Interferometry (BLItz, Pall FortéBio Corp.) using Ni-NTA biosensors (FortéBio) and 50 mM HEPES, pH 7.5; 150 mM NaCl; 5% (v/v) glycerol; and 2 mM β-mercaptoethanol (BME) buffer. To set the reference KD, an 80 µg/ml solution of Erb1 was immobilized to the biosensor in order to obtain binding curves for increasing concentrations of Ytm1. According to this, an evaluation of Erb1-derived peptides (P1–P3) was performed using 5 µM Ytm1 previously incubated during 30 min at equimolar concentrations of each peptide. New KD values were determined. […]
Biolayer interferometry interference assays were used to evaluate the ability of each peptide to interfere in the in vitro formation of the Erb1/Ytm1 complex. […] Peptides were evaluated for their ability to decrease in the Erb1/Ytm1 complex formation by preincubating the analyte with each peptide derived from the immobilized partner. […] Erb1-derived peptides were evaluated by their ability to decrease Erb1/Ytm1 complex affinity. […]

[5] = target: T4, Ytm1 (Chaetomium thermophilum ribosome assembly factor) (Chaetomium thermophilum, UniProt G0SFB5 1-495); assay: MST; 5 nM Ytm1 labelled with Red-NHS second-generation dye; 50 mM HEPES pH 7.5, 150 mM NaCl, 0.1% Pluronic F-127; peptide in sixteen serial dilutions (P1 1,230-0.0751 µM; P3 maximum 1,580 µM); Monolith NT.115; conditions: both partners purified
T4 construct: Ytm1, Chaetomium thermophilum; YTM1 gene amplified from total cDNA and cloned in pOPIN-F; For MST, Ytm1 was labelled with the Red-NHS second-generation dye; source: Sf9 insect cells (baculovirus), purified (Histrap-HP Ni, Superdex 200 SEC)
T4 sequence: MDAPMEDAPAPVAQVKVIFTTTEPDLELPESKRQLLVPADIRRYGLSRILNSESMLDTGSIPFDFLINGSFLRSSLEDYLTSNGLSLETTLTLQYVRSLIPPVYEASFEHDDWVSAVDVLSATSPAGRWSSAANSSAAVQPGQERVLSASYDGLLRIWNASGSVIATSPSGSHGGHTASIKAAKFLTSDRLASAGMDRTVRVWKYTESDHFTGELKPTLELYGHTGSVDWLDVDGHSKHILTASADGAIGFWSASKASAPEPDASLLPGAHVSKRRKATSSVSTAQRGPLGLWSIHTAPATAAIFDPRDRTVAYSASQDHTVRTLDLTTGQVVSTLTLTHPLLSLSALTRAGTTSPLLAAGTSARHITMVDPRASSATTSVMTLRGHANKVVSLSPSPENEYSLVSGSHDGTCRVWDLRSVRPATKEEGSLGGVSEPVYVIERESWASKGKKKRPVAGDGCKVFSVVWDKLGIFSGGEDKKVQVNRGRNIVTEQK

[6] = target: T5, Ytm1 (Chaetomium thermophilum ribosome assembly factor) (Chaetomium thermophilum, UniProt G0SFB5 1-495); assay: BLI
T5 chain: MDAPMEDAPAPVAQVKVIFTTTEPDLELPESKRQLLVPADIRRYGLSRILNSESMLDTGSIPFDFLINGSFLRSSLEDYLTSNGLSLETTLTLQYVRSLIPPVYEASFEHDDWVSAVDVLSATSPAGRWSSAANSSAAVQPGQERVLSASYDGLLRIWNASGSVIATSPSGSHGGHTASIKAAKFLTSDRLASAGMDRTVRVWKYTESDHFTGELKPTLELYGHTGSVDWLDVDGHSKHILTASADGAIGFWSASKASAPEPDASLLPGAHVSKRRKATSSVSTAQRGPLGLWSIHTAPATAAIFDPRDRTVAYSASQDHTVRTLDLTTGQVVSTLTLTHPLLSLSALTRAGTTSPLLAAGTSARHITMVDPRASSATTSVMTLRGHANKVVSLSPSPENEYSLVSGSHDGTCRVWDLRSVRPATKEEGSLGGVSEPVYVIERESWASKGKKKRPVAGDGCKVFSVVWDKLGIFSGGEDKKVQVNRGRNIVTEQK

[7] = target: T4, Ytm1 (Chaetomium thermophilum ribosome …); assay: BLI; biotinylated peptide (50 µg/ml) immobilised on streptavidin biosensor; Ytm1 (or Erb1 for Biot-P6) as analyte; interference-assay buffer with 0.05% BSA; conditions: both partners purified

T2 sequence (G0SCK6 whole entry, one chain of several): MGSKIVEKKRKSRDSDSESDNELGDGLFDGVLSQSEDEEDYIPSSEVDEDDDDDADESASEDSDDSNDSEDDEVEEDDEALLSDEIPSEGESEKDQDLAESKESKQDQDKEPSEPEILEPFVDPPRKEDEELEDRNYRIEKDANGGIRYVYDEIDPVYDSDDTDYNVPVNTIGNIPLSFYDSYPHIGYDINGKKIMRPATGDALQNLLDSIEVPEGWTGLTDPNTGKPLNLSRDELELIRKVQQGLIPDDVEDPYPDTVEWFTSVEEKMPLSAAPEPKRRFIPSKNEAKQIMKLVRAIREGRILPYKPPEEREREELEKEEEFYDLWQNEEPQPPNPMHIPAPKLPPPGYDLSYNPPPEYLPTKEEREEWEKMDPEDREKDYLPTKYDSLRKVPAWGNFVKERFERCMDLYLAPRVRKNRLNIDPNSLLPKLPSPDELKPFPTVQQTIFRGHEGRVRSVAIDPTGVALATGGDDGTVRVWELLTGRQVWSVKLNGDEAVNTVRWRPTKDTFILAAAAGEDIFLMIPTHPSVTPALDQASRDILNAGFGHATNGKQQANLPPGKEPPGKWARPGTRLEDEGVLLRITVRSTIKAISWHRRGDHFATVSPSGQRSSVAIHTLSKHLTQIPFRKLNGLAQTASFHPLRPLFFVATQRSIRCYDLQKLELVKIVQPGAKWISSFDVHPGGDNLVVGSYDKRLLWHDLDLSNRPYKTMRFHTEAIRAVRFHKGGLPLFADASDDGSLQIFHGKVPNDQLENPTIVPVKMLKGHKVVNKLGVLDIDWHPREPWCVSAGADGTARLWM

CC(C)C[C@H](NC(=O)[C@H](CCC(=O)O)NC(=O)[C@H](Cc1c[nH]c2ccccc12)NC(=O)[C@@H](NC(=O)CCCC[C@@H]1SC[C@@H]2NC(=O)N[C@@H]21)C(C)C)C(=O)N[C@@H](CC(C)C)C(=O)N[C@H](C(=O)NCC(=O)N[C@@H](CCCNC(=N)N)C(=O)N[C@@H](CCC(N)=O)C(=O)N[C@H](C(=O)N[C@@H](Cc1c[nH]c2ccccc12)C(=O)O)C(C)C)[C@@H](C)O [Biot-P1] (Biotin-VWELLTGRQVW-OH)
kon (Ytm1 [1]): 386 M⁻¹ s⁻¹

CC(C)[C@H](NC(=O)[C@H](CS)NC(=O)[C@H](Cc1c[nH]c2ccccc12)NC(=O)[C@@H]1CCCN1C(=O)[C@H](CCC(=O)O)NC(=O)[C@H](CCCNC(=N)N)NC(=O)[C@@H]1CCCN1C(=O)[C@H](Cc1c[nH]cn1)NC(=O)[C@H](Cc1c[nH]c2ccccc12)NC(=O)[C@H](CC(=O)O)NC(=O)CCCC[C@@H]1SC[C@@H]2NC(=O)N[C@@H]21)C(=O)O [Biot-P3] (Biotin-DWHPREPWCV-OH)
kon (Ytm1 [1]): 829 M⁻¹ s⁻¹

AGMDRTV [Peptide P5, Ytm1-derived peptide AGMDRTV, residues 194–200]
kd (1/s) of Ytm1/Erb1 binding after preincubation of Erb1 with peptide (Erb1/Ytm1 complex [2]): 0.001655 s⁻¹

Biotin-RGHANKV [Biot-P6]
Binding of Erb1 to immobilized biotinylated peptide (Erb1): could not detect binding | Binding of Erb1 to immobilized biotinylated peptide (Erb1; listed as biot-P6): did not show binding

HDDWVSA [Peptide P4, Ytm1-derived peptide HDDWVSA, residues 110–116]
kd (1/s) of Ytm1/Erb1 binding after preincubation of Erb1 with peptide (Erb1/Ytm1 complex [2]): 0.001585 s⁻¹

QQTIFRGH [Peptide P2, Erb1-derived peptide QQTIFRGH, residues 445–452]
Thermal shift (Tm) of Ytm1 in the presence of peptide (Ytm1 [3]): no significant thermal shift | kd (1/s) of Erb1/Ytm1 binding after preincubation of Ytm1 with peptide (Erb1/Ytm1 complex [4]): 0.01393 s⁻¹

B1: Peptide P1 (Erb1 479-489) (peptide)
peptide: VWELLTGRQVW
notes: Erb1, Chaetomium thermophilum, residues 479-489; source: synthetic peptide, bought: Synpeptide Co., Ltd., Shanghai
Kd [5]: 8.2 µM

B2: Biot-P1 (N-terminally biotinylated Erb1 479-489) (peptide)
peptide: Biotin-VWELLTGRQVW
notes: as for B1
Kd [6]: 33.4 µM | binding result [7]: binds

B3: Biot-P3 (N-terminally biotinylated Erb1 780-789) (peptide)
peptide: Biotin-DWHPREPWCV
notes: Erb1, Chaetomium thermophilum, residues 780-789; source: synthetic peptide, bought: Synpeptide Co., Ltd., Shanghai
Kd [6]: 6.29 µM | binding result [7]: binds
